Source: EP4813381A1, “PHARMACEUTICAL USE OF GUAIANE SESQUITERPENE DERIVATIVE” (Nanjing University Of Chinese Medicine, priority 2023, dated 2025)

Tests used:
[1] = system: renal injury markers (Ngal, Havcr1), inflammatory cytokines (TNF, IL-6, IL-1), fibrosis-related factors (α-Sma, Col1a1, Tgfb1); experiment: Folic acid acute kidney injury model in mice: Q-PCR of kidney tissue; format: in vivo, C57BL/6 mice; design: Tnf / Il1 / Il6: unit not given here; details: kidney mRNA, acute model (FA)
[2] = system: Th2-related factors Il4, Il13, Il31 and inflammatory factors Tslp, Tnf, Il1; experiment: MC903-induced ear atopic dermatitis mouse model, Compound 1 ointment: Q-PCR of ear; format: in vivo; design: unit not given here; details: ear mRNA, AD mice
Procedure: Except for the Normal group, all other groups underwent AD modeling: 20 µL of MC903 solution (also known as calcipotriol, purchased from Shanghai Yuanye Biotechnology Co., Ltd., used for inducing atopic models) was applied to each mouse's ears once daily for 14 consecutive days to induce the atopic dermatitis model. […] Measure ear thickness changes every 2 days using an electronic caliper before modeling and after treatment initiation.

[3] = system: Rat mast cells (RBL-2H3); experiment: Mast cell degranulation test (anti-DNP IgE / DNP-HSA); format: cell-based; details: RBL-2H3, IgE+HSA, 4 h
Procedure: Rat mast cells (RBL-2H3) were cultured routinely in DMEM medium containing 10% FBS within a 5% CO2 incubator. Upon reaching 70-80% confluence, cells were uniformly seeded at a density of 1 × 10^5 cells/mL into 6-well plates (2 mL per well), divided into the following groups: Normal, IgE+HSA, Compound 1 (0.01, 0.1, 1, 10 µM). Mast cells were sensitized with 500 µg/L anti-DNP IgE for 12 h. washed with PBS, and cultured for an additional 12 h with 100 µg/L DNP-HSA. Compound 1 at the specified concentrations was then added. […]

[4] = system: MC903-induced atopic dermatitis (AD); experiment: MC903-induced ear atopic dermatitis mouse model, Compound 1 ointment: ear thickness and dermatitis score; format: in vivo, mice; details: for inhibition rate (ear thickness): final day; for Dermatitis Score: ear, score max 12
Procedure: Weigh white petrolatum, light liquid paraffin, glyceryl monostearate, ethylparaben, and cetyl alcohol. Heat to 65 °C while stirring until dissolved. Slowly add the dissolved active pharmaceutical ingredient (API) while continuing to stir until uniformly mixed. Set aside. • (2) Aqueous Phase Preparation: […] Slowly add the aqueous phase to the oil phase while maintaining 65 °C, homogenize, and continue stirring for 30 min; • (4) Cooling: Stop heating, continue stirring, gradually reduce to room temperature, cool to form an ointment, and fill containers. […] Dissolve these substances in a small amount of propylene glycol, then place the resulting solution into the aforementioned pre-cooled blank ointment base. […] Skin Lesion Severity Score: […] Statistical analysis was performed on the data.

[5] = system: inflammatory cytokines (IL-1β, IL-6); experiment: LPS acute lung injury model in mice: ELISA of inflammatory cytokines; format: in vivo, C57BL/6 mice
Source text: The abdomen was opened, and the lungs were removed. They were rinsed twice with pre-chilled PBS. […] P values less than 0.05 were considered statistically significant.

[6] = system: MDSCs and T cells; experiment: T cell proliferation in a co-culture model of MDSCs and T cells (flow cytometry); format: cell-based, mice; details: MDSCs treated with 1 µM compound for 12 h, 48 h co-culture with T cells (1:1), compared to the control group
Procedure: Under sterile conditions, the tibia was removed, both ends of the bone were cut, and bone marrow was repeatedly flushed into a 15 mL centrifuge tube using a 1 mL syringe filled with culture medium. Centrifuge at 1600 rpm for 5 min to collect bone marrow cells. […] The spleen cell suspension was then transferred into a 15 mL centrifuge tube. Centrifuge at 1600 rpm for 5 min to collect T cells. Wash twice with 1×PBS. Resuspend the centrifuged T cells in 1 mL PBS and add 1 mL of 10 µM CFDA-SE solution. Incubate at room temperature for 8 min. […] After drug administration, collect MDSC cells into centrifuge tubes. Centrifuge at 1600 rpm for 5 min, remove supernatant, resuspend in 1 mL fresh medium, and plate. Add 1 mL stimulated activated T cells (1:1 ratio) for 48 h co-culture. After incubation, collect cells into centrifuge tubes, wash twice with PBS, and incubate with Fc antibody at room temperature in the dark for 10 min. Add CD3-labeled flow cytometry antibody and incubate at 4 °C in the dark for 30 min. After incubation, wash cells with PBS, resuspend in 300 µL PBS, and analyze by flow cytometry.

[7] = oral gavage 0.1 mg/kg for three days
[8] = oral gavage 1 mg/kg for three days

## C=C1C(=O)O[C@@H]2[C@@H]3[C@]4(CC[C@@]3(C)O)C[C@]4(C)CC[C@@H]12 [compound 1]
[1]; oral 0.1 mg/kg
  Col1a1: 1.64±0.16
  Havcr1: 175.10±17.63
  Il1: 2.62±0.56
  Il6: 8.02±0.77
  Ngal: 30.52±5.05
  Tgfb1: 1.96±0.17
  Tnf: 2.89±0.59
  α-Sma: 1.82±0.19
[1]; oral 1 mg/kg
  Col1a1: 1.32±0.15
  Havcr1: 99.99±7.98
  Il1: 1.72±0.45
  Il6: 3.98±0.59
  Ngal: 20.17±2.21
  Tgfb1: 1.36±0.10
  Tnf: 2.76±0.71
  α-Sma: 1.42±0.11
[2]; 0.01% ointment
  Il1: 19.67 ± 5.26
  Il4: 3.62 ±0.97
  Il13: 3.30 ±0.47
  Il31: 2.31 ±0.28
  TSLP: 2.24 ±0.25
  Tnf: 2.35 ±0.39
[2]; 0.1% ointment
  Il1: 9.89 ±3.44
  Il4: 1.95 ±0.66
  Il13: 2.85 ±0.48
  Il31: 1.64 ±0.25
  TSLP: 1.42 ±0.16
  Tnf: 1.34 ±0.41
[2]; 1% ointment
  Il1: 5.69±1.12
  Il4: 1.17±0.37
  Il13: 1.56±0.20
  Il31: 1.10±0.19
  TSLP: 1.12±0.07
  Tnf: 1.01±0.40
[3]; 0.01 µM
  β-Glucosaminidase: 13.24 ± 0.08 ng/mL
[3]; 0.1 µM
  β-Glucosaminidase: 12.08 ± 0.12 ng/mL
[3]; 1 µM
  β-Glucosaminidase: 10.65 ± 0.05 ng/mL
[3]; 10 µM
  β-Glucosaminidase: 7.13 ± 0.07 ng/mL
[4]; 0.01% Compound 1 ointment
  inhibition rate (ear thickness): 71%
[4]; 0.01% ointment, Day 1
  ear thickness: 0.14±0.00 mm
[4]; 0.01% ointment, Day 3
  ear thickness: 0.17±0.00 mm
[4]; 0.01% ointment, Day 5
  ear thickness: 0.21±0.00 mm
[4]; 0.01% ointment, Day 7
  ear thickness: 0.22±0.00 mm
[4]; 0.01% ointment, Day 8
  ear thickness: 0.23±0.01 mm
[4]; 0.01% ointment, Day 9
  ear thickness: 0.23±0.01 mm
[4]; 0.01% ointment, Day 10
  ear thickness: 0.25±0.00 mm
[4]; 0.01% ointment, Day 11
  ear thickness: 0.26±0.01 mm
[4]; 0.01% ointment, Day 12
  ear thickness: 0.26±0.01 mm
[4]; 0.01% ointment, Day 13
  ear thickness: 0.22±0.01 mm
[4]; 0.01% ointment, Day 14
  ear thickness: 0.21±0.01 mm
[4]; 0.1% Compound 1 ointment
  inhibition rate (ear thickness): 71%
[4]; 0.1% ointment, Day 1
  ear thickness: 0.14±0.00 mm
[4]; 0.1% ointment, Day 3
  ear thickness: 0.17±0.00 mm
[4]; 0.1% ointment, Day 5
  ear thickness: 0.21±0.00 mm
[4]; 0.1% ointment, Day 7
  ear thickness: 0.21±0.00 mm
[4]; 0.1% ointment, Day 8
  ear thickness: 0.23±0.00 mm
[4]; 0.1% ointment, Day 9
  ear thickness: 0.23±0.00 mm
[4]; 0.1% ointment, Day 10
  ear thickness: 0.23±0.00 mm
[4]; 0.1% ointment, Day 11
  ear thickness: 0.24±0.01 mm
[4]; 0.1% ointment, Day 12
  ear thickness: 0.24±0.01 mm
[4]; 0.1% ointment, Day 13
  ear thickness: 0.21±0.01 mm
[4]; 0.1% ointment, Day 14
  ear thickness: 0.21±0.01 mm
[4]; 1% Compound 1 ointment
  inhibition rate (ear thickness): 80%
[4]; 1% ointment, Day 1
  ear thickness: 0.15±0.00 mm
[4]; 1% ointment, Day 3
  ear thickness: 0.17±0.00 mm
[4]; 1% ointment, Day 5
  ear thickness: 0.21±0.00 mm
[4]; 1% ointment, Day 7
  ear thickness: 0.22±0.01 mm
[4]; 1% ointment, Day 8
  ear thickness: 0.22±0.01 mm
[4]; 1% ointment, Day 9
  ear thickness: 0.23±0.01 mm
[4]; 1% ointment, Day 10
  ear thickness: 0.23±0.01 mm
[4]; 1% ointment, Day 11
  ear thickness: 0.24±0.00 mm
[4]; 1% ointment, Day 12
  ear thickness: 0.23±0.01 mm
[4]; 1% ointment, Day 13
  ear thickness: 0.20±0.00 mm
[4]; 1% ointment, Day 14
  ear thickness: 0.19±0.00 mm
[4]; 0.01% ointment for 7 days
  Dermatitis Score: 3.50±0.22
[4]; 0.1% ointment for 7 days
  Dermatitis Score: 2.67±0.21
[4]; 1% ointment for 7 days
  Dermatitis Score: 2.33±0.33
[5]; [7]
  IL-1β: 1824.88 ± 32.73 pg/mL
  IL-6: 2760.57 ± 288.02 pg/mL
[5]; [8]
  IL-1β: 945.66 ± 36.71 pg/mL
  IL-6: 1314.91 ± 231.08 pg/mL

## CN(C)C[C@@H]1C(=O)O[C@H]2[C@H]1CC[C@@]1(C)C[C@]13CC[C@@](C)(O)[C@H]23 [compound 20]
[6]
  T-cell proliferation rate (%): + (T-cell proliferation rate within the 0-20% range compared to the control group)
